Paper PMC10895668, “Lead Optimization of the 5-Phenylpyrazolopyrimidinone NPD-2975 toward Compounds with Improved Antitrypanosomal Efficacy” (Journal of Medicinal Chemistry, 2024)
Where two headings read alike, the source gives them in different places.

Assays:
T. b. rhodesiense = assay: Trypanosoma susceptibility assay (resazurin viability); format: cell-based; settings: Trypanosoma brucei, mean ± SD, n ≥ 2, read-out: pIC50 T. b. rhodesiense (converted)
Protocol: The antiparasitic assays were carried out exactly as described in Blaazer et al.([39]) Metabolic stability, pharmacokinetics, acute mouse infection model results were collected as described previously.[21] All animal experiments were conducted in compliance with institutional guidelines and following approval by the Ethical Committee of the University of Antwerp, Belgium [UA-ECD 2014–96]. Female Swiss mice (15–20 g), were purchased from Janvier (Le Genest Saint Isle, France). […] Animals were treated PO b.i.d. for 5 days at 25 and 50 mg/kg 31c. For the SL-RNA qPCR experiments blood was collected sublingually and subjected to erythrocyte lysis before extracting RNA with the QIAamp RNA Blood Mini kit (Qiagen). […]
Parasites were counted in a KOVA counting chamber and diluted to 1.5 × 10^4 parasites/well of a 96-well plate (200 μL total volume), upon which the prediluted test compounds were added. […] After 3 days of incubation, parasite growth was assessed fluorimetrically after addition of 50 μL of resazurin per well. After 6 h (T. b. rhodesiense) or 24 h (T. b. brucei) at 37 °C, fluorescence is measured (λex 550 nm, λem 590 nm). Parasite viability was assessed using the resazurin viability assay, and drug activity was calculated as percentage viability reduction compared to nontreated controls.

[1] = system: peritoneal mouse macrophages (PMM); assay: Cytotoxicity on peritoneal mouse macrophages; format: cell-based; settings: Macrophage, n ≥ 2
Trypanosoma cruzi = assay: Antiparasitic assay, T. cruzi; format: cell-based; settings: mean ± SD, n ≥ 2, read-out: pIC50 T. cruzi (converted)
Protocol: First, they were tested in vitro against the protozoan species Trypanosoma cruzi and Leishmania infantum and the clinically relevant T. b. rhodesiense.
The antiparasitic assays were carried out exactly as described in Blaazer et al.([39]) Metabolic stability, pharmacokinetics, acute mouse infection model results were collected as described previously.[21] All animal experiments were conducted in compliance with institutional guidelines and following approval by the Ethical Committee of the University of Antwerp, Belgium [UA-ECD 2014–96]. Female Swiss mice (15–20 g), were purchased from Janvier (Le Genest Saint Isle, France). […] Animals were treated PO b.i.d. for 5 days at 25 and 50 mg/kg 31c. For the SL-RNA qPCR experiments blood was collected sublingually and subjected to erythrocyte lysis before extracting RNA with the QIAamp RNA Blood Mini kit (Qiagen). […] Small pieces of fat, brain, and spleen tissue were excised and immediately transferred to RNA later (Qiagen) and incubated overnight at 4 °C. RNA extraction was performed as instructed in the RNeasy Mini Plus Kit manual (Qiagen). The one-step SensiFAST SYBR Hi-Rox PCR kit (Bioline USA Inc., via Gentaur Belgium BVBA, Kampenhout, Belgium) was used for the PCR with the following forward and reverse primers, respectively 5′-[…]-3′ and 5′-[…]-3′. […]

[2] = human, microsomes, 1 h
MRC-5 cells = assay: MRC-5SV2 cytotoxicity assay; format: cell-based; settings: Homo sapiens, MRC5, 72 h; cytotoxicity, 3 days incubation; mean ± SD, n ≥ 2; read-out: pIC50 MRC-5 (converted)
Protocol: The synthesized analogues were tested against T. b. brucei, and inhibition of MRC-5 (human lung fibroblasts MRC-5SV40) cell proliferation was included as cytotoxicity control. […] Analogue 17 with an amino group instead of the carbonyl group was prepared to improve solubility for further modification. […] In vitro experiments were carried out with the bloodstream form of the T. b. brucei Squib strain (suramin-sensitive). […] All cultures and assays were conducted at 37 °C under an atmosphere of 5% CO2. […] Cell growth is compared to untreated-control wells (100% cell growth) and medium-control wells (0% cell growth). […] After 4 h at 37 °C, fluorescence is measured (λex 550 nm, λem 590 nm). The results are expressed as % reduction in cell growth/viability compared to control wells and an IC50 and an IC90 (50 and 90% inhibitory concentrations) are determined.

[3] = In vivo pharmacokinetics in non-infected mice
Protocol: (§1) The antiparasitic assays were carried out exactly as described in Blaazer et al.([39]) Metabolic stability, pharmacokinetics, acute mouse infection model results were collected as described previously.[21] All animal experiments were conducted in compliance with institutional guidelines and following approval by the Ethical Committee of the University of Antwerp, Belgium [UA-ECD 2014–96]. Female Swiss mice (15–20 g), were purchased from Janvier (Le Genest Saint Isle, France). […] Animals were treated PO b.i.d. for 5 days at 25 and 50 mg/kg 31c. For the SL-RNA qPCR experiments blood was collected sublingually and subjected to erythrocyte lysis before extracting RNA with the QIAamp RNA Blood Mini kit (Qiagen). […] Small pieces of fat, brain, and spleen tissue were excised and immediately transferred to RNA later (Qiagen) and incubated overnight at 4 °C. RNA extraction was performed as instructed in the RNeasy Mini Plus Kit manual (Qiagen). The one-step SensiFAST SYBR Hi-Rox PCR kit (Bioline USA Inc., via Gentaur Belgium BVBA, Kampenhout, Belgium) was used for the PCR with the following forward and reverse primers, respectively 5′-[…]-3′ and 5′-[…]-3′. An initial activation step of 10 min at 45 °C and 10 min at 95 °C was used, followed by the amplification step for 40 cycles (15 s at 95 °C, 15 s 50 °C and 15 s at 60 °C). At last, the melting curves were generated with an increment of 0.3 °C (15 s at 95 °C 1 min at 45 °C and 15 s at 95 °C). The PCR was run on the Step One Plus real-time PCR system (Applied Biosystems, California, USA). An additional qPCR was performed with the mouse housekeeping gene Eef2 to confirm successful RNA extraction.
Blood drops were sampled before treatment and at 0.5, 1, 2, 4, 6, and 24 h after PO dosage; samples after IP dosage were identical with an additional time point of 0.25 h. The blood drops were analyzed adopting the dry blood spot technique and analysis by LC-MS^2. Briefly, blood was collected from the retro-orbital complex using capillary tubes and dropped (15 μL) on WhatmanFTADMPK cards (B). The spots were left to air-dry at room temperature for at least 2 h. For analysis, a 6 mm disk was punched out and extracted in 75:25 MeCN/water containing the internal standard tolbutamide. The amount of parent compound was determined using liquid chromatography (UPLC) (Waters Aquity) coupled with tandem quadrupole mass spectrometry (MS^2) (Waters Xevo) equipped with an electrospray ionization (ESI) interface and operated in multiple reaction monitoring mode. Standard curves in whole blood were made for calibration and validation. Standard PK parameters were determined using Topfit software.
Brain tissue of the animals was collected on ice at autopsy 24 h post-treatment (50 mg/kg oral dose) after perfusion. […] The tissues were immediately homogenized using a GentleMacs tissue homogenizer. The tissue samples were subjected to protein precipitation by adding MeCN, followed by a centrifugation step at 4 °C for 5 min at 21, 130 g. The supernatant was further diluted in 75:25 MeCN/water for LC-MS^2 analysis as described above.

T. b. brucei = assay: Trypanosoma susceptibility assay (resazurin viability); format: cell-based; settings: for IC50: Trypanosoma brucei
Protocol: as §1
In vitro experiments were carried out with the bloodstream form of the T. b. brucei Squib strain (suramin-sensitive). Parasites were routinely cultured in T25 culture flasks containing 10 mL of HMI-9 medium (Invitrogen) supplemented with 10% heat-inactivated fetal bovine serum (Life Technologies) and 2.5 μg/mL Geneticin (Life Technologies). MRC-5SV2 cells were cultured in MEM + Earl’s salts-medium, supplemented with 2 mM L-glutamine, 16.5 mM NaHCO3, and 5% inactivated fetal calf serum. All cultures and assays were conducted at 37 °C under an atmosphere of 5% CO2.
Parasites were counted in a KOVA counting chamber and diluted to 1.5 × 10^4 parasites/well of a 96-well plate (200 μL total volume), upon which the prediluted test compounds were added. Drug exposure covered a 72 h period without renewal of the culture medium. After 3 days of incubation, parasite growth was assessed fluorimetrically after addition of 50 μL of resazurin per well. After 6 h (T. b. rhodesiense) or 24 h (T. b. brucei) at 37 °C, fluorescence is measured (λex 550 nm, λem 590 nm). Parasite viability was assessed using the resazurin viability assay, and drug activity was calculated as percentage viability reduction compared to nontreated controls.

[4] = female, Swiss, mouse, in vivo, ip, 10 mg/kg
[5] = female, Swiss, mouse, in vivo, po, 50 mg/kg

**Q.** Which results are given for `CC(C)(C)c1n[nH]c2c(=O)[nH]c(-c3ccc(F)cc3)nc12` [31c, 3-(tert-Butyl)-5-(4-fluorophenyl)-1,6-dihydro-7H-pyrazolo[4,3-d]pyrimidin-7-one]?
**A.** IC50 (T. b. rhodesiense): 10 nM; IC50 [1]: > 63100 nM; IC50 (Trypanosoma cruzi): > 63100 nM; parent compound remaining [2]: at least 69%; IC50 (MRC-5 cells): > 63100 nM; blood concentration exceeding the in vitro IC50 against T. brucei ([3]; both routes (10 mg/kg IP, 50 mg/kg PO)): more than 300 fold; AUC(0-t) at 24 h [3, 4]: 2470 ± 1560 ng·h/mL; Cl [3, 4]: 326 ± 148; Cmax at 24 h [3, 4]: 5.05 ± 1.51 µM; Tmax at 24 h [3, 4]: 0.5 ± 0.3 h; half-life at 24 h [3, 4]: 1.56 ± 0.5 h; AUC0–6 h higher compared with 2 [3, 5]: more than 7 fold; AUC(0-t) at 24 h [3, 5]: 43400 ng·h/mL; Cl [3, 5]: 11 ± 1; Cmax at 24 h [3, 5]: 10.9 ± 1.69 µM; Tmax at 24 h [3, 5]: 6 h; concentration at 24 h [3, 5]: 0.296 µM; half-life at 24 h [3, 5]: 3.51 ± 1.34 h; improved potency compared to 2 (T. b. brucei; T. brucei, versus compound 2): 4 fold; IC50 (T. b. brucei; 72 h, T. b. brucei Squib bloodstream form, 72 h exposure, mean ± SD, n ≥ 2, read-out: pIC50 T. brucei (converted)): 15.8 nM; IC50 (T. b. brucei; read-out: IC50 against T. b. brucei): 17 nM
